Test results taken from patent US11534412B2, “Application of totarol and pharmaceutical composition containing totarol” (Emergopharm SP. Z O.O. SP.K., priority 2017, dated 2022).

System: Streptococcus agalactiae - clinical strain
Test: Determination of the MIC value of totarol, broth dilution in 96-well plates with OD and quantitative culture
Type: cell-based
Conditions: for OD, average of 3 measurements / OD: 620 nm
Procedure: Test of antibacterial activity of totarol using DMI (dimethylisosorbide) as a solvent.
1 ml of the suspension was collected to 9 ml of a TSB broth ([…]). Suspensions with a dilution of 10^−6 were prepared in the described way. A suspension with a cell density of 10^5 cfu/ml was selected for further investigations. For each strain, 2 96-well plates were prepared: the first one was intended for the OD measurement, the second one—for quantitative culture on solid media. • A/ to wells B1-D1, B2-D2 and B-D 4-11, 100 µl of the broth were added; • B/ to wells B3-D3, 200 µl of the broth were added; • C/ to wells B1-D1, 1 µl of stock I was added; • D/ to wells B2-D2, 1 µl of stock II was added; • E/ to wells B3-D3, 2 µl of stock III were added. Using a multichannel pipette, 100 µl of the sample were collected from each of the B3-D3 wells and placed in wells B4-D4 (mixing by sucking the content in and letting it out for 5 times). The pipette tips were replaced and 100 µl of the content were collected from of the B4-D4 wells, and placed in wells B5-D5, mixing as previously. These operations were repeated through the wells B11-D11. The content in the B11-D11 wells was mixed, and 100 µl of the fluid were collected and discarded. This way, a series of dilutions of totarol samples in DMI in the range of 0.32% to 0.0004% was obtained. Then, 100 µl of a corresponding bacterial culture were added to the wells B, C, D 1-11. In consequence, a change in the final concentration range occurred, to 0.16%-0.0002%. Control Preparation: • Negative control: 100 µl of the broth+1 pl DMI were added to the Al well. • Positive control (I): 100 µl of the broth with the bacterial culture were added to the wells E1-G1. • Diluent positive control (II): 100 µl of the broth with the bacterial culture+1 pl DMI were added to the wells E2-G2. The OD value in the individual wells was read at the wavelength of 620 nm (read time 0). From the second 96-well plate, a culture was inoculated by a quantitative method from every dilution onto a well with a proper solid medium, and incubated for 24 h at 37° C. under aerobic or anaerobic conditions, depending on the strain. The plates were incubated under aerobic conditions or in an atmosphere of an elevated CO2 concentration (for the strains requiring it) in an incubator at 37° C. The OD was read after 8 h, 16 h, and 24 h, respectively. Before every OD measurement, the contents of the wells were mixed delicately. In parallel to the OD readout, cultures we inoculated from the second 96-well plate, from every dilution, into plates with a proper solid medium, and incubated for 24 h at 37° C., under aerobic or anaerobic conditions. For the analysis of the experimental results, an average value of the OD measurement obtained from three repetitions in the individual times (0, 8, 16, and 24 h) for the individual microbes (Gardnerella vaginalis, Streptococcus agalactiae, Enterococcus faecalis, Lactobacillus gasseri/plantarum) was taken. Additionally, the number of bacteria grown on solid media was taken into account. The results of the tests confirm the specific, concentration-dependent selectiveness, and the high antibacterial effectiveness of totarol against the pathogenic microorganisms: Gardnerella vaginalis, Streptococcus agalactiae, Enterococcus faecalis at low MIC values safe for bacteria of the Lactobacillus genus.

MIC value (S. agalactiae): 0.0013%
SMILES: CC(C)c1c(O)ccc2c1CC[C@H]1C(C)(C)CCC[C@]21C [Totarol, totarol]
Viable bacterial count by quantitative culture (cfu/ml) (totarol 0.0002%, 0 h): 3.4 × 10^5 cfu/ml
OD, average of 3 measurements (totarol 0.0002%, 0 h): 0.289
Viable bacterial count by quantitative culture (cfu/ml) (totarol 0.0002%, 8 h): 4 × 10^6 cfu/ml
OD, average of 3 measurements (totarol 0.0002%, 8 h): 0.314
Viable bacterial count by quantitative culture (cfu/ml) (totarol 0.0002%, 16 h): 1.1 × 10^6 cfu/ml
OD, average of 3 measurements (totarol 0.0002%, 16 h): 0.498
Viable bacterial count by quantitative culture (cfu/ml) (totarol 0.0002%, 24 h): 1 × 10^7 cfu/ml
OD (totarol 0.0002%, 24 h): 0.682
Viable bacterial count by quantitative culture (cfu/ml) (totarol 0.0004%, 0 h): 6 × 10^5 cfu/ml
OD, average of 3 measurements (totarol 0.0004%, 0 h): 0.305
Viable bacterial count by quantitative culture (cfu/ml) (totarol 0.0004%, 8 h): 6 × 10^6 cfu/ml
OD, average of 3 measurements (totarol 0.0004%, 8 h): 0.318
Viable bacterial count by quantitative culture (cfu/ml) (totarol 0.0004%, 16 h): 9.1 × 10^5 cfu/ml
OD, average of 3 measurements (totarol 0.0004%, 16 h): 0.493
Viable bacterial count by quantitative culture (cfu/ml) (totarol 0.0004%, 24 h): 2 × 10^7 cfu/ml
OD (totarol 0.0004%, 24 h): 0.668
Viable bacterial count by quantitative culture (cfu/ml) (totarol 0.0007%, 0 h): 4.5 × 10^5 cfu/ml
OD, average of 3 measurements (totarol 0.0007%, 0 h): 0.297
Inoculation cfu/ml (totarol 0.0007%, 8 h): 6 × 10^4 cfu/ml
OD, average of 3 measurements (totarol 0.0007%, 8 h): 0.319
Viable bacterial count by quantitative culture (cfu/ml) (totarol 0.0007%, 16 h): 3.5 × 10^6 cfu/ml
OD, average of 3 measurements (totarol 0.0007%, 16 h): 0.630
Viable bacterial count by quantitative culture (cfu/ml) (totarol 0.0007%, 24 h): 6 × 10^7 cfu/ml
OD (totarol 0.0007%, 24 h): 0.941
Viable bacterial count by quantitative culture (cfu/ml) (totarol 0.0013%, 0 h): 3.3 × 10^5 cfu/ml
OD, average of 3 measurements (totarol 0.0013%, 0 h): 0.299
Viable bacterial count by quantitative culture (cfu/ml) (totarol 0.0013%, 8 h): 0 cfu/ml
OD, average of 3 measurements (totarol 0.0013%, 8 h): 0.302
Viable bacterial count by quantitative culture (cfu/ml) (totarol 0.0013%, 16 h): 0 cfu/ml
OD, average of 3 measurements (totarol 0.0013%, 16 h): 0.302
Viable bacterial count by quantitative culture (cfu/ml) (totarol 0.0013%, 24 h): 0 cfu/ml
OD (totarol 0.0013%, 24 h): 0.302
Viable bacterial count by quantitative culture (cfu/ml) (totarol 0.0025%, 0 h): 2.6 × 10^5 cfu/ml
OD, average of 3 measurements (totarol 0.0025%, 0 h): 0.289
Viable bacterial count by quantitative culture (cfu/ml) (totarol 0.0025%, 8 h): 0 cfu/ml
OD, average of 3 measurements (totarol 0.0025%, 8 h): 0.290
Viable bacterial count by quantitative culture (cfu/ml) (totarol 0.0025%, 16 h): 0 cfu/ml
OD, average of 3 measurements (totarol 0.0025%, 16 h): 0.291
Viable bacterial count by quantitative culture (cfu/ml) (totarol 0.0025%, 24 h): 0 cfu/ml
OD (totarol 0.0025%, 24 h): 0.291
Viable bacterial count by quantitative culture (cfu/ml) (totarol 0.005%, 0 h): 1.5 × 10^5 cfu/ml
OD, average of 3 measurements (totarol 0.005%, 0 h): 0.288
Viable bacterial count by quantitative culture (cfu/ml) (totarol 0.005%, 8 h): 0 cfu/ml
OD, average of 3 measurements (totarol 0.005%, 8 h): 0.292
Viable bacterial count by quantitative culture (cfu/ml) (totarol 0.005%, 16 h): 0 cfu/ml
OD, average of 3 measurements (totarol 0.005%, 16 h): 0.296
Viable bacterial count by quantitative culture (cfu/ml) (totarol 0.005%, 24 h): 0 cfu/ml
OD (totarol 0.005%, 24 h): 0.300
Viable bacterial count by quantitative culture (cfu/ml) (totarol 0.01%, 0 h): 10^5 cfu/ml
OD, average of 3 measurements (totarol 0.01%, 0 h): 0.297
Viable bacterial count by quantitative culture (cfu/ml) (totarol 0.01%, 8 h): 0 cfu/ml
OD, average of 3 measurements (totarol 0.01%, 8 h): 0.295
Viable bacterial count by quantitative culture (cfu/ml) (totarol 0.01%, 16 h): 0 cfu/ml
OD, average of 3 measurements (totarol 0.01%, 16 h): 0.301
Viable bacterial count by quantitative culture (cfu/ml) (totarol 0.01%, 24 h): 0 cfu/ml
OD (totarol 0.01%, 24 h): 0.307
Viable bacterial count by quantitative culture (cfu/ml) (totarol 0.02%, 0 h): 10^5 cfu/ml
OD, average of 3 measurements (totarol 0.02%, 0 h): 0.318
Viable bacterial count by quantitative culture (cfu/ml) (totarol 0.02%, 8 h): 0 cfu/ml
OD, average of 3 measurements (totarol 0.02%, 8 h): 0.323
Viable bacterial count by quantitative culture (cfu/ml) (totarol 0.02%, 16 h): 0 cfu/ml
OD, average of 3 measurements (totarol 0.02%, 16 h): 0.324
Viable bacterial count by quantitative culture (cfu/ml) (totarol 0.02%, 24 h): 0 cfu/ml
OD (totarol 0.02%, 24 h): 0.324
Viable bacterial count by quantitative culture (cfu/ml) (totarol 0.04%, 0 h): 3 × 10^5 cfu/ml
OD, average of 3 measurements (totarol 0.04%, 0 h): 0.406
Viable bacterial count by quantitative culture (cfu/ml) (totarol 0.04%, 8 h): 0 cfu/ml
OD, average of 3 measurements (totarol 0.04%, 8 h): 0.535
Viable bacterial count by quantitative culture (cfu/ml) (totarol 0.04%, 16 h): 0 cfu/ml
OD, average of 3 measurements (totarol 0.04%, 16 h): 0.489
Viable bacterial count by quantitative culture (cfu/ml) (totarol 0.04%, 24 h): 0 cfu/ml
OD (totarol 0.04%, 24 h): 0.405
Viable bacterial count by quantitative culture (cfu/ml) (totarol 0.08%, 0 h): 5 × 10^5 cfu/ml
OD, average of 3 measurements (totarol 0.08%, 0 h): 0.563
Viable bacterial count by quantitative culture (cfu/ml) (totarol 0.08%, 8 h): 0 cfu/ml
OD, average of 3 measurements (totarol 0.08%, 8 h): 0.564
Viable bacterial count by quantitative culture (cfu/ml) (totarol 0.08%, 16 h): 0 cfu/ml
OD, average of 3 measurements (totarol 0.08%, 16 h): 0.540
Viable bacterial count by quantitative culture (cfu/ml) (totarol 0.08%, 24 h): 0 cfu/ml
OD (totarol 0.08%, 24 h): 0.430
Viable bacterial count by quantitative culture (cfu/ml) (totarol 0.16%, 0 h): 2 × 10^5 cfu/ml
OD, average of 3 measurements (totarol 0.16%, 0 h): 0.512
Viable bacterial count by quantitative culture (cfu/ml) (totarol 0.16%, 8 h): 0 cfu/ml
OD, average of 3 measurements (totarol 0.16%, 8 h): 0.605
Viable bacterial count by quantitative culture (cfu/ml) (totarol 0.16%, 16 h): 0 cfu/ml
OD, average of 3 measurements (totarol 0.16%, 16 h): 0.569
Viable bacterial count by quantitative culture (cfu/ml) (totarol 0.16%, 24 h): 0 cfu/ml
OD (totarol 0.16%, 24 h): 0.615
